Experimental findings from PMC9919513, “A Practical Approach to Bicyclic Carbamoyl Pyridones with Application to the Synthesis of HIV-1 Integrase Strand Transfer Inhibitors” (Molecules, 2023) are described below.

The subject of data set [1] is HIV-1 vectors that carry WT IN. The data set can be described thus: Single-round HIV-1 replication antiviral assay, wild-type IN. The class given is cell-based. The conditions noted are these: for EC50: 48 h; for Ratio of the antiviral potencies after and before hydrogenation (WT): EC50 of saturated 7 over EC50 of unsaturated 6, WT IN. The protocol: The bicyclic metal chelating carbamoyl pyridone moiety is common to second-generation tricyclic INSTIs (3, 4, and 5, Figure 1). Analogs of the current study are simplified analogs that lack a third ring. […] The halogen substitution pattern of the benzylamide moiety can affect inhibitory potencies of INSTIs. We determined the antiviral potencies of our compounds in single round HIV-1 replication assays using viral constructs with wild-type IN [31]. Cytotoxicities were determined as previously described. […] In general, the potencies of bicyclic analogs 6 having an unsaturated bond at the C4 position were insensitive to differences in N-methyl substituents. […] Analogs 6g and 6h represent simplified analogs of DTG (3) and CAB (5), respectively, in which the third ring (C-ring) is opened and having doble bond in B-ring, but lacking α-methyl stereochemistry.
Human embryonic kidney cell culture cell line 293 was acquired from the American Type Culture Collection (ATCC). The human osteosarcoma cell line, HOS, was obtained from Dr. Richard Schwartz (Michigan State University, East Lansing, MI, USA) and grown in Dulbecco’s modified Eagle’s medium (Invitrogen, Carlsbad, CA, USA) supplemented with 5% (v/v) fetal bovine serum, 5% newborn calf serum, and penicillin (50 units/mL) plus streptomycin (50 µg/mL; Quality Biological, Gaithersburg, MD, USA). The transfection vector, pNLNgoMIVR-ΔLUC was made from pNLNgoMIVR-ΔEnv.HSA by removing the HSA reporter gene and replacing it with a luciferase reporter gene between the NotI and XhoI restriction sites. To produce the new IN mutant S230N used in this study, the IN open reading frame was removed from pNLNgoMIVR-ΔENV.LUC by digestion with KpnI and SalI, and the resulting fragment was inserted between the KpnI and SalI sites of pBluescript KS+. Using that construct as the wild-type template, we prepared the following HIV-1 IN mutant S230N using the QuikChange II XL site-directed mutagenesis kit (Agilent Technologies, Santa Clara, CA, USA) protocol. The following sense oligonucleotides were used with matching cognate antisense oligonucleotides (not shown) (Integrated DNA Technologies, Coralville, IA, USA) in the mutagenesis: S230N 5′-[…]-3′. The DNA sequence of the IN mutant S230N construct was verified independently by DNA sequence determination. The mutated IN coding sequences from pBluescript KS+ were then subcloned into pNLNgoMIVR-ΔEnv.LUC (between the KpnI and SalI sites) to produce mutant HIV-1 constructs, which were also checked by DNA sequencing. […]. On the day prior to transfection, 293 cells were plated on 100 mm diameter dishes at a density of 1.5 × 10^6 cells per plate. Next, 293 cells were transfected with 16 µg of pNLNgoMIVR^-ΔLUC and 4 µg of pHCMV-g (obtained from Dr. Jane Burns, University of California, San Diego) using the calcium phosphate method. At approximately 6 h after the calcium phosphate precipitate was added, 293 cells were washed twice with phosphate-buffered saline (PBS) and incubated with fresh media for 48 h. The virus-containing supernatants were then harvested, clarified by low-speed centrifugation, filtrated, and diluted for preparation in antiviral infection assays. On the day prior to the screen, HOS cells were seeded in a 96-well luminescence cell culture plate at a density of 4000 cells in 100 µL per well. On the day of the screen for cellular cytotoxicity determination, cells were treated with compounds from a concentration range of 250 µM to 0.05 µM and then incubated at 37 °C for 48 h. On the day of the screen for antiviral activity infection assays, cells were treated with compounds from a concentration range of 5 µM to 0.0001 µM using 11 serial dilutions and then incubated at 37 °C for 3 h. After compound incorporation and activation in the cell, 100 µL of virus-stock (WT or mutant) diluted to achieve a luciferase signal between 0.2 and 1.5 Relative Luciferase Units (RLUs) was added to each well and further incubated at 37 °C for 48 h. […]

A short description of data set [2]: in vitro. In kind it is cell-based. The conditions noted are these: human, HOS cells. The protocol: Human embryonic kidney cell culture cell line 293 was acquired from the American Type Culture Collection (ATCC). The human osteosarcoma cell line, HOS, was obtained from Dr. Richard Schwartz (Michigan State University, East Lansing, MI, USA) and grown in Dulbecco’s modified Eagle’s medium (Invitrogen, Carlsbad, CA, USA) supplemented with 5% (v/v) fetal bovine serum, 5% newborn calf serum, and penicillin (50 units/mL) plus streptomycin (50 µg/mL; Quality Biological, Gaithersburg, MD, USA). The transfection vector, pNLNgoMIVR-ΔLUC was made from pNLNgoMIVR-ΔEnv.HSA by removing the HSA reporter gene and replacing it with a luciferase reporter gene between the NotI and XhoI restriction sites. To produce the new IN mutant S230N used in this study, the IN open reading frame was removed from pNLNgoMIVR-ΔENV.LUC by digestion with KpnI and SalI, and the resulting fragment was inserted between the KpnI and SalI sites of pBluescript KS+. Using that construct as the wild-type template, we prepared the following HIV-1 IN mutant S230N using the QuikChange II XL site-directed mutagenesis kit (Agilent Technologies, Santa Clara, CA, USA) protocol. The following sense oligonucleotides were used with matching cognate antisense oligonucleotides (not shown) (Integrated DNA Technologies, Coralville, IA, USA) in the mutagenesis: S230N 5′-[…]-3′. The DNA sequence of the IN mutant S230N construct was verified independently by DNA sequence determination. The mutated IN coding sequences from pBluescript KS+ were then subcloned into pNLNgoMIVR-ΔEnv.LUC (between the KpnI and SalI sites) to produce mutant HIV-1 constructs, which were also checked by DNA sequencing. […]. On the day prior to transfection, 293 cells were plated on 100 mm diameter dishes at a density of 1.5 × 10^6 cells per plate. Next, 293 cells were transfected with 16 µg of pNLNgoMIVR^-ΔLUC and 4 µg of pHCMV-g (obtained from Dr. Jane Burns, University of California, San Diego) using the calcium phosphate method. At approximately 6 h after the calcium phosphate precipitate was added, 293 cells were washed twice with phosphate-buffered saline (PBS) and incubated with fresh media for 48 h. The virus-containing supernatants were then harvested, clarified by low-speed centrifugation, filtrated, and diluted for preparation in antiviral infection assays. On the day prior to the screen, HOS cells were seeded in a 96-well luminescence cell culture plate at a density of 4000 cells in 100 µL per well. On the day of the screen for cellular cytotoxicity determination, cells were treated with compounds from a concentration range of 250 µM to 0.05 µM and then incubated at 37 °C for 48 h. On the day of the screen for antiviral activity infection assays, cells were treated with compounds from a concentration range of 5 µM to 0.0001 µM using 11 serial dilutions and then incubated at 37 °C for 3 h. After compound incorporation and activation in the cell, 100 µL of virus-stock (WT or mutant) diluted to achieve a luciferase signal between 0.2 and 1.5 Relative Luciferase Units (RLUs) was added to each well and further incubated at 37 °C for 48 h. Cellular cytotoxicity was measured by using the ATP Lite Luminescence detection system and monitored by adding 50 µL of cell lysis buffer from the Luminescence ATP detection assay to each well followed by mixing at 700 rpm at room temperature for 5 min using a compact thermomixer. After addition of 50 µL of reconstituted Luminescence ATP detection assay reagent to all wells except for the negative control/background wells, the plates were mixed at 700 rpm at room temperature for 5 min using a compact thermomixer, incubated at room temperature for 20 min to allow time for signal development, and finally, cytotoxicity was determined using the microplate reader. Infectivity was measured by using the Steady-lite plus luminescence reporter gene assay system (PerkinElmer, Waltham, MA, USA). […]

Setting [3] is: Human immunodeficiency virus 1, HOS, read-out: EC50, antiviral potency, WT IN, VSV-g-pseudotyped HIV-1 luciferase vector with WT IN, HOS cells, 48 h.
The mark [4] stands for this setting: 48 h, read-out: CC50, cytotoxic concentration resulting in 50% reduction in the level of ATP.

Like-named read-outs stand apart in the source and are kept apart here.

Take `O=C(NCc1c(F)cc(F)cc1F)c1cn2c(c(O)c1=O)C(=O)N1[C@H]3CC[C@H](C3)O[C@@H]1C2` [BIC, Bictegravir, reference compound]: the EC50 (usually the concentration needed to bring the measured effect to its halfway point) in data set [1] (setting [3]) was approximately 2 nM.

With `C[C@H]1CO[C@@H]2Cn3cc(C(=O)NCc4ccc(F)cc4F)c(=O)c(O)c3C(=O)N12` [CAB, Cabotegravir, reference compound], in data set [1] (setting [3]), the concentration giving a half-maximal response (EC50) is approximately 2 nM.

In the case of `Cn1ccn2cc(C(=O)NCc3ccc(F)cc3F)c(=O)c(O)c2c1=O` [Compound 6a, N-(2,4-Difluorobenzyl)-9-hydroxy-2-methyl-1,8-dioxo-1,8-dihydro-2H-pyrido [1,2-a]pyrazine-7-carboxamide], the melting point (usually the temperature of the solid-liquid transition) was in the range of 275 to 280 °C. Also, in data set [1] (setting [3]), the EC50 came to 2.7 ± 0.2 nM.

On to `CC(C)n1ccn2cc(C(=O)NCc3ccc(F)cc3F)c(=O)c(O)c2c1=O` [Compound 6b, N-(2,4-Difluorobenzyl)-9-hydroxy-2-isopropyl-1,8-dioxo-1,8-dihydro-2H-pyrido [1,2-a]pyrazine-7-carboxamide], for which, in data set [2] (setting [4]), the CC50 was more than 250000 nM. In data set [1] (setting [3]), the concentration giving a half-maximal response (EC50) turned out to be 3.8 ± 0.6 nM.

As for `COCCCCCCn1ccn2cc(C(=O)NCc3ccc(F)cc3F)c(=O)c(O)c2c1=O` [Compound 6f, N-(2,4-Difluorobenzyl)-9-hydroxy-2-(6-methoxyhexyl)-1,8-dioxo-1,8-dihydro-2H-pyrido [1,2-a]pyrazine-7-carboxamide], the CC50 in data set [2] (setting [4]) was more than 250000 nM. In addition, the concentration for a half-maximal effect (EC50) in data set [1] (setting [3]) is 4.8 ± 0.2 nM.

For the molecule `COCCCn1ccn2cc(C(=O)NCc3ccc(F)cc3F)c(=O)c(O)c2c1=O` [Compound 6g, N-(2,4-Difluorobenzyl)-9-hydroxy-2-(3-methoxypropyl)-1,8-dioxo-1,8-dihydro-2H-pyrido [1,2-a]pyrazine-7-carboxamide], the CC50 in data set [2] (setting [4]) is more than 250000 nM. In data set [1] (setting [3]), the EC50 is approximately 2 nM.

`COCCn1ccn2cc(C(=O)NCc3ccc(F)cc3F)c(=O)c(O)c2c1=O` [Compound 6h, N-(2,4-Difluorobenzyl)-9-hydroxy-2-(2-methoxyethyl)-1,8-dioxo-1,8-dihydro-2H-pyrido [1,2-a]pyrazine-7-carboxamide]: in data set [2] (setting [4]), the CC50 is more than 250000 nM. Moreover, the EC50 in data set [1] (setting [3]) is approximately 2 nM; in data set [1] (read-out: EC50, antiviral potency, WT IN, VSV-g-pseudotyped HIV-1 luciferase vector with WT IN, HOS cells), 1.9 ± 0.4 nM.

Turning to `CC(C)CC(C)n1ccn2cc(C(=O)NCc3ccc(F)cc3F)c(=O)c(O)c2c1=O` (stereo not drawn) [Compound 6i, N-(2,4-Difluorobenzyl)-9-hydroxy-2-(4-methylpentan-2-yl)-1,8-dioxo-1,8-dihydro-2H-pyrido [1,2-a]pyrazine-7-carboxamide], the melting point was in the range of 199 to 203 °C. Further, in data set [2] (setting [4]), the CC50 is more than 250000 nM. Moreover, the EC50 in data set [1] (setting [3]) came to 4.2 ± 1 nM.

`CN1CCn2cc(C(=O)NCc3ccc(F)cc3F)c(=O)c(O)c2C1=O` [Compound 7a, N-(2,4-Difluorobenzyl)-9-hydroxy-2-methyl-1,8-dioxo-1,3,4,8-tetrahydro-2H-pyrido [1,2-a]pyrazine-7-carboxamide]: the melting point was in the range of 247 to 252 °C. In addition, the CC50 in data set [2] (setting [4]) is more than 250000 nM. The “Ratio of the antiviral potencies after and before hydrogenation (WT)” value (shortened to “Ratio of the antiviral potencies”) in data set [1] is 1.7. In addition, in data set [1] (setting [3]), the concentration for a half-maximal effect (EC50) worked out at 4.6 ± 0.7 nM.

For `CC(C)N1CCn2cc(C(=O)NCc3ccc(F)cc3F)c(=O)c(O)c2C1=O` [Compound 7b, N-(2,4-Difluorobenzyl)-9-hydroxy-2-isopropyl-1,8-dioxo-1,3,4,8-tetrahydro-2H-pyrido [1,2-a]pyrazine-7-carboxamide], the CC50 in data set [2] (running text of b13, read-out: CC50, cytotoxicity) stood at 167000 nM. The “Ratio of the antiviral potencies” value in data set [1] came out at 0.79. In addition, the concentration for a half-maximal effect (EC50) in data set [1] (setting [3]) was 3 ± 0.1 nM.

`COCCCCCCN1CCn2cc(C(=O)NCc3ccc(F)cc3F)c(=O)c(O)c2C1=O` [Compound 7f, N-(2,4-Difluorobenzyl)-9-hydroxy-2-(6-methoxyhexyl)-1,8-dioxo-1,3,4,8-tetrahydro-2H-pyrido [1,2-a]pyrazine-7-carboxamide] returned a melting point of 228 to 232 °C. In addition, the CC50 in data set [2] (setting [4]) was more than 250000 nM. Moreover, the “Ratio of the antiviral potencies” value in data set [1] is listed as 0.96. Besides, in data set [1] (setting [3]), the EC50 came out at 4.6 ± 0.4 nM.

`COCCN1CCn2cc(C(=O)NCc3ccc(F)cc3F)c(=O)c(O)c2C1=O` [Compound 7h, N-(2,4-Difluorobenzyl)-9-hydroxy-2-(2-methoxyethyl)-1,8-dioxo-1,3,4,8-tetrahydro-2H-pyrido [1,2-a]pyrazine-7-carboxamide] displayed a melting point of 207 to 210 °C. Further, the “Ratio of the antiviral potencies” value in data set [1] stood at 2.1. In addition, the EC50 in data set [1] (setting [3]) came out at 3.9 ± 0.5 nM.
